US11226340B2, “Therapeutically triggering an innate immune response in a target tissue” (priority 2016, dated 2022)

Assays:
B16 melanoma [1] = assay: Cancer antigen (gp100) potentiation in B16 melanoma lung model; type: in vivo, mouse; settings: K. pneumoniae-pre-exposed mice; day +14
B16 melanoma [2] = assay: STING agonist combined with SSI in B16 melanoma lung model; type: in vivo, mouse; settings: day +14
Experimental: The anti-tumour efficacy of QBKPN SSI in combination with the STING agonist 2′2′-cGMAP (inVivoGen) was evidenced in C57Bl/6 mice, as follows. On ˜day −31, mice were infected with K. pneumoniae (2.5×10^5 cells/mouse) by oropharyngeal instillation after being anaesthetized with isofluorane, then rested. Within 5-7 days, all mice were fully recovered from K. pneumonia challenge. Starting on day −10, some mice were S.C. injected with QBKPN SSI; mice were injected every other day from Day −10 to day +12. Injections were performed in rotating sites at a dose of 0.03 ml of a 5.0 OD suspension. On days −10, −6, and −4, some mice were also treated with STING agonist (SC injection of 10 μg/mouse in 20 μl of saline), either co-mixed with SSI or s.c. in a distal site (nape). On Day 0, mice were challenged with B16 melanoma by tail-vein (I.V.) injection of singlecell suspensions of tumour cells (2.0×10^5 cells/mouse). On day +14, plasma was collected for ELISA, then mice were sacrificed and visual metastases counted and recorded. Serum was collected into heparin-containing tubes, then centrifuged to remove cells. ELISA (RND Systems DuoSet DY485, limit of detection […]) was performed per the manufacturer's protocol. […] Statistical differences were evaluated by unpaired T test (GraphPad PRISM).

| Compound | tumour burden (metastatic-like B16 melanoma in the lungs) (B16 melanoma [1]) | tumour burden (tumour nodules in the lungs) (B16 melanoma [2]; K. pneumoniae-pre-exposed mice) | circulating (plasma) levels of IFN-γ (B16 melanoma [2]) |
| --- | --- | --- | --- |
| KVPRNQDWL [gp100, melanoma-specific antigen gp100 25-33 peptide] | no significant effect |  |  |
| Nc1nc2c(ncn2[C@@H]2O[C@@H]3COP(=O)(O)O[C@@H]4[C@H](O)C(COP(=O)(O)O[C@@H]2C3O)O[C@H]4n2cnc3c(N)ncnc32)c(=O)[nH]1 (stereo partly drawn) [STING agonist, 2′2′-cGMAP] |  | reduced tumour burden (p=0.0038) | enhanced circulating levels of IFN-γ |
